For the experiment, the target named is T1, human ANO6 (Homo sapiens, UniProt Q4KMQ2).
T1 construct: expressed in transfected cells
T1 sequence (Q4KMQ2 1-931 isoform Q4KMQ2-2): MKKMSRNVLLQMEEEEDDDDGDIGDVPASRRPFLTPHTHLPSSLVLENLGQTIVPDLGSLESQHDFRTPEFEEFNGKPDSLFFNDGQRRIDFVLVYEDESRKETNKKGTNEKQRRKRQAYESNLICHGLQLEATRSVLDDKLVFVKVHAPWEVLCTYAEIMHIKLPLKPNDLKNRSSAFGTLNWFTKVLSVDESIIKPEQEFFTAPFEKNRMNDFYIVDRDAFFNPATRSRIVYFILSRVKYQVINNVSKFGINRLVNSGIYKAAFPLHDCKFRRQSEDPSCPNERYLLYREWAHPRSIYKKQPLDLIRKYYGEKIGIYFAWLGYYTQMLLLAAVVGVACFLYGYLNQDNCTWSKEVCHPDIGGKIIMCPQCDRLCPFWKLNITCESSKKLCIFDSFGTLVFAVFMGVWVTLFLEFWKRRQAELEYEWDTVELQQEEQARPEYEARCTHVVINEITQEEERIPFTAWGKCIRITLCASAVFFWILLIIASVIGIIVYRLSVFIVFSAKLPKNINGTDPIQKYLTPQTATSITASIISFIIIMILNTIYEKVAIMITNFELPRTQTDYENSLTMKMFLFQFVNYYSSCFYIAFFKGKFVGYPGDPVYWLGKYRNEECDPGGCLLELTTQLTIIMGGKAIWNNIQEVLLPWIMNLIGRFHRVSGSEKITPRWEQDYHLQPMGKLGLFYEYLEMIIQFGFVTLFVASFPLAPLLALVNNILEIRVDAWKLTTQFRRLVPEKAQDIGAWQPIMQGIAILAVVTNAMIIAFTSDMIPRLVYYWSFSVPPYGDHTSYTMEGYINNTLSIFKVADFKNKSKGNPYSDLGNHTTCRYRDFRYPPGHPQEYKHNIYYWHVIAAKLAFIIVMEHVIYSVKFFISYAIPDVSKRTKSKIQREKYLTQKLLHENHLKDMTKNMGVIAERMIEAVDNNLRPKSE
Kind of experiment: YFP quenching assay (ANO6 ion channel activity). To be noted: 10 μM ionomycin; for inhibition at 1 µM: test compound 1 μM, read-out: Inhibition Level 1 μM; for inhibition at 30 µM: test compound 30 μM, read-out: Inhibition Level 30 μM. In kind it is cell-based. An excerpt:
Example 3: YFP Quenching Assay
1. Materials and Instruments
Ionomycin (Alomonelab cat. #I-700), FLUOstar Omega microplate reader (BMG Labtech, Ortenberg, Germany), and MARS Data Analysis Software (BMG Labtech)
Fisher rat thyroid (FRT) cells stably expressing human ANO6 (GenBank accession no. NP_001191732.1, provided by J. H. Nam, Dongguk University College of Medicine, Korea) and halide sensor mutant YFP-H148Q/I152L/F46L) were constructed and grown in Dulbecco's modified Eagle's medium Nutrient Mixture F-12 (DMEM/F-12) supplemented 10% FBS, 100 units/mL penicillin, 500 μg/mL hygromycin B and 100 μg/mL neomycin.
Fisher rat thyroid (FRT) cells stably expressing human ANO6 and halide sensor mutant YFP (H148Q/I152L/F46L) were seeded in black walled 96 well plates and incubated in a 37° C., 5% CO2 incubator to reach about 100% cell confluency. Then, each well of the 96 well plates were washed for several times with phosphate buffered saline (PBS), and 50 μL of PBS was added to each well. Test compounds (100× in DMSO) were added to each well to be 1% v/v DMSO. After incubation for 10 minutes in 40° C., the 96 well plates were transferred to a plate reader, and YFP fluorescence changed by SCN-introduced into cells through activated ANO6 were measured by the following steps.
(1) YFP fluorescence signals were recorded in every 0.4 seconds.
(2) Basal YFP fluorescence signals were recorded for 1 second.
(3) 140 mM SCN-(50 μL) containing 10 μM ionomycin was injected to each well, and YFP fluorescence signals were recorded.
The inhibitory activity (%) of each of the test compounds was obtained by the following steps.
(1) Background signals were subtracted from recording values, and the resulting values were converted to relative percentages. The values at 0 second were set to be 100%.
(2) Differences between the values at 3.6 seconds and those of at 7.6 seconds were calculated.
(3) In each row of 96 well plate, the inhibitory activity of each of the test compounds was calculated as percentages. The inhibitory activity of a negative control group to which neither compounds nor ionomycin were treated was set to be 100%, and the inhibitory activity of a positive control group to which ionomycin was treated and compounds were not treated was set to be 0%.
(4) The assay was performed in duplicate or triplicate, and the results were averaged.

A word on the inhibition: it is the share of the control response that was lost under treatment. Turning to `Cc1ccc(CNC(=O)c2cccc(Nc3cnc(-c4ccccc4)nc3)c2)o1` [Compound 11, N-[(5-methylfuran-2-yl)methyl]-3-[(2-phenylpyrimidin-5-yl)amino]benzamide], the inhibition at 1 µM was in the range of 30 to 60% and the inhibition at 30 µM is at least 60%.

For the compound `Cc1ccc(CNC(=O)c2cccc(Nc3ncc(-c4ccccc4)nn3)c2)o1` [Compound 12, N-[(5-methylfuran-2-yl)methyl]-3-[(6-phenyl-1,2,4-triazin-3-yl)amino]benzamide], the inhibition at 1 µM was 30 to 60% and the inhibition at 30 µM lay within 30 to 60%.

Regarding `COc1ccc(-c2ccc(Nc3cccc(C(=O)NCc4ccc(C)o4)c3)nn2)cc1` [Compound 13, 3-{[6-(4-methoxyphenyl)pyridazin-3-yl]amino}-N-[(5-methylfuran-2-yl)methyl]benzamide], the inhibition at 1 µM is below 30% and the inhibition at 30 µM was at least 60%.

For `O=C(NCCCN1CCOCC1)c1cccc(Nc2ccc(-c3ccccc3)nn2)c1` [Compound 15, N-[3-(morpholin-4-yl)propyl]-3-[(6-phenylpyridazin-3-yl)amino]benzamide], the inhibition at 1 µM was below 30% and the inhibition at 30 µM lay in the range of 30 to 60%.

Regarding `Cc1ccc(CNC(=O)c2cccc(Nc3ccc(-c4ccc(Cl)c(Cl)c4)nn3)c2)o1` [Compound 16, 3-{[6-(3,4-dichlorophenyl)pyridazin-3-yl]amino}-N-[(5-methylfuran-2-yl)methyl]benzamide], the inhibition at 30 µM was below 30%.

As for `NC(=O)c1cccc(Nc2ccc(-c3ccccc3)nn2)c1` [Compound 17, 3-[(6-phenylpyridazin-3-yl)amino]benzamide], the inhibition at 30 µM was in the range of 30 to 60%.

With `O=C(NCc1ccncc1)c1cccc(Nc2ccc(-c3ccccc3)nn2)c1` [Compound 18, 3-[(6-phenylpyridazin-3-yl)amino]-N-[(pyridin-4-yl)methyl]benzamide], the inhibition at 1 µM is below 30% and the inhibition at 30 µM was 30 to 60%.

For the compound `O=C(NCc1ccccn1)c1cccc(Nc2ccc(-c3ccccc3)nn2)c1` [Compound 19, 3-[(6-phenylpyridazin-3-yl)amino]-N-[(pyridin-2-yl)methyl]benzamide], the inhibition at 1 µM is below 30% and the inhibition at 30 µM is at least 60%.

In the case of `O=C(NCc1cccnc1)c1cccc(Nc2ccc(-c3ccccc3)nn2)c1` [Compound 20, 3-[(6-phenylpyridazin-3-yl)amino]-N-[(pyridin-3-yl)methyl]benzamide], the inhibition at 1 µM fell in the range of 30 to 60% and the inhibition at 30 µM was at least 60%.

For `O=C(NCCCN1CCCC1)c1cccc(Nc2ccc(-c3ccccc3)nn2)c1` [Compound 21, 3-[(6-phenylpyridazin-3-yl)amino]-N-[3-(pyrrolidin-1-yl)propyl]benzamide], the inhibition at 1 µM is below 30% and the inhibition at 30 µM is below 30%.

In the case of `Cc1ccc(CNC(=O)c2ccc(Nc3ccc(-c4ccccc4)nn3)cc2)o1` [Compound 22, N-[(5-methylfuran-2-yl)methyl]-4-[(6-phenylpyridazin-3-yl)amino]benzamide], the inhibition at 30 µM was below 30%.

In the case of `Cc1ccc(CNC(=O)c2cccc(Nc3ccc(-c4ccccn4)nn3)c2)o1` [Compound 23, N-[(5-methylfuran-2-yl)methyl]-3-{[6-(pyridin-2-yl)pyridazin-3-yl]amino}benzamide], the inhibition at 1 µM is below 30% and the inhibition at 30 µM was at least 60%.

For the compound `O=C(NC1COC1)c1cccc(Nc2ccc(-c3ccccc3)nn2)c1` [Compound 26, N-(oxetan-3-yl)-3-[(6-phenylpyridazin-3-yl)amino]benzamide], the inhibition at 1 µM is 30 to 60% and the inhibition at 30 µM was at least 60%.

Consider `O=C(NCCc1ccncc1)c1cccc(Nc2ccc(-c3ccccc3)nn2)c1` [Compound 27, 3-[(6-phenylpyridazin-3-yl)amino]-N-[2-(pyridin-4-yl)ethyl]benzamide], for which the inhibition at 1 µM is 30 to 60% and the inhibition at 30 µM is at least 60%.

As to `O=C(NC1CCOCC1)c1cccc(Nc2ccc(-c3ccccc3)nn2)c1` [Compound 28, N-(oxan-4-yl)-3-[(6-phenylpyridazin-3-yl)amino]benzamide], the inhibition at 1 µM is below 30% and the inhibition at 30 µM was at least 60%.

On to `O=C(NCC1CCOCC1)c1cccc(Nc2ccc(-c3ccccc3)nn2)c1` [Compound 34, N-[(oxan-4-yl)methyl]-3-[(6-phenylpyridazin-3-yl)amino]benzamide], for which the inhibition at 1 µM was below 30% and the inhibition at 30 µM was at least 60%.

For the compound `O=C(NCC1COC1)c1cccc(Nc2ccc(-c3ccccc3)nn2)c1` [Compound 35, N-[(oxetan-3-yl)methyl]-3-[(6-phenylpyridazin-3-yl)amino]benzamide], the inhibition at 1 µM was below 30% and the inhibition at 30 µM was at least 60%.

For the compound `CCNC(=O)c1cccc(Nc2ccc(-c3ccccc3)nn2)c1` [Compound 37, N-ethyl-3-[(6-phenylpyridazin-3-yl)amino]benzamide], the inhibition at 1 µM fell in the range of 30 to 60% and the inhibition at 30 µM was at least 60%.

As to `Cc1cnnc(Nc2cccc(C(=O)NCc3ccc(C)o3)c2)c1` [Compound 42, N-[(5-methylfuran-2-yl)methyl]-3-[(5-methylpyridazin-3-yl)amino]benzamide], the inhibition at 30 µM is below 30%.

On to `Cc1ccc(CNC(=O)c2cccc(Nc3ccc(C4CC4)nn3)c2)o1` [Compound 43, 3-[(6-cyclopropylpyridazin-3-yl)amino]-N-[(5-methylfuran-2-yl)methyl]benzamide], for which the inhibition at 1 µM is below 30%.

In the case of `Cc1ccc(Nc2cccc(C(=O)NCc3ccc(C)o3)c2)nn1` [Compound 47, N-[(5-methylfuran-2-yl)methyl]-3-[(6-methylpyridazin-3-yl)amino]benzamide], the inhibition at 1 µM was below 30%.

Take `Cc1ccc(CNC(=O)c2cccc(Nc3nnccc3C)c2)o1` [Compound 48, N-[(5-methylfuran-2-yl)methyl]-3-[(4-methylpyridazin-3-yl)amino]benzamide]: the inhibition at 1 µM is below 30%.

Regarding `Cc1ccc(CNC(=O)c2cccc(Nc3ccc(C4CCOCC4)nn3)c2)o1` [Compound 49, N-[(5-methylfuran-2-yl)methyl]-3-{[6-(oxan-4-yl)pyridazin-3-yl]amino}benzamide], the inhibition at 1 µM is below 30%.

Take `O=C(NCCCc1ccccc1)c1cccc(Nc2ncc(-c3ccccc3)cn2)c1` [Compound 55, N-(3-phenylpropyl)-3-[(5-phenylpyrimidin-2-yl)amino]benzamide]: the inhibition at 1 µM is at least 60%.

With `Cc1ccc(CNC(=O)c2cccc(Nc3ccc(CC(C)C)nn3)c2)o1` [Compound 61, N-[(5-methylfuran-2-yl)methyl]-3-{[6-(2-methylpropyl)pyridazin-3-yl]amino}benzamide], the inhibition at 1 µM is below 30%.

Regarding `Cc1ccc(CNC(=O)c2cccc(Nc3ccc(C4CCCC4)nn3)c2)o1` [Compound 62, 3-[(6-cyclopentylpyridazin-3-yl)amino]-N-[(5-methylfuran-2-yl)methyl]benzamide], the inhibition at 1 µM was below 30%.

With `CC(C)(C)NC(=O)c1cccc(Nc2ccc(-c3ccccc3)nn2)c1` [Compound 65, N-tert-butyl-3-[(6-phenylpyridazin-3-yl)amino]benzamide], the inhibition at 1 µM was 30 to 60%.

The values above are taken from US20230080054A1 (ILDONG PHARMACEUTICAL CO., LTD., priority 2021, published 2023).
